According to US20230278972A1, “SUBSTITUTED HALOALKYL SULFONANILIDE HERBICIDES” (FMC Corporation, priority 2020, published 2023):

Legend:
Format in all cases: in vivo
corn (Zea mays) = test: Test A1 preemergence, corn
Procedure, shortened: (§1)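 Pre: seeds in loam/sand blend, directed soil spray. Post: potted plants, same soil, 2–10 cm, 1–2 leaf stage. Chemicals in non-phytotoxic solvent + surfactant for both.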

[1] = tested on: Foxtail, Giant (giant foxtail, Setaria faberi); test: Test A1 preemergence, Foxtail, Giant
Procedure, shortened: as §1

kochia (Bassia scoparia) [2] = test: Test A1 preemergence, kochia
Procedure, shortened: as §1

[3] = tested on: Oat, Wild (wild oat, Avena fatua); test: Test A1 preemergence, Oat, Wild
Procedure, shortened: as §1

[4] = tested on: ragweed (common ragweed, Ambrosia artemisiifolia); test: Test A1 preemergence, ragweed
Procedure, shortened: as §1

kochia (Bassia scoparia) [5] = test: Test A1 postemergence, kochia; details: Postemergence
Procedure, shortened: (§2)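 Plants grown in pots of loam/sand mix; preemergence = soil-directed spray on seeded pots, postemergence = spray at 1–2 leaves, height 2–10 cm; test chemicals formulated in non-phytotoxic solvent with surfactant.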

[6] = tested on: Oat, Wild (wild oat, Avena fatua); test: Test A1 postemergence, Oat, Wild; details: Postemergence
Procedure, shortened: as §1

[7] = tested on: ragweed (common ragweed, Ambrosia artemisiifolia); test: Test A1 postemergence, ragweed; details: Postemergence
Procedure, shortened: as §1

soybean (Glycine max) = test: Test A1 postemergence, soybean; details: Postemergence
Procedure, shortened: as §2

[8] = tested on: barnyardgrass (Echinochloa crus-galli); test: Test B1 flooded paddy test, barnyardgrass; details: 250 g ai/ha, Flood, applied to paddy water, 2-leaf stage, visually evaluated after 10 to 14 days
Excerpt: A dash (-) response means no test result.

[9] = 31 g ai/ha, 0 to 100 scale (0 no effect, 100 complete control)
[10] = 125 g ai/ha, 0 to 100 scale, 0 no effect, 100 complete control
[11] = 31 g ai/ha, 0 to 100 scale (0 no effect, 100 complete control), 10 days

Compound	Plant response rating, Corn (corn (Zea mays); [9])	Plant response rating, Corn (corn (Zea mays); [10])	Plant response rating, Foxtail, Giant [1, 9]	Plant response rating, Foxtail, Giant [1, 10]	Plant response rating, Kochia (kochia (Bassia scoparia) [2]; [9])	Plant response rating, Kochia (kochia (Bassia scoparia) [2]; [10])	Plant response rating, Oat, Wild [3, 9]	Plant response rating, Oat, Wild [3, 10]	Plant response rating, Ragweed [4, 9]	Plant response rating, Ragweed [4, 10]	Plant response rating, Kochia (kochia (Bassia scoparia) [5]; [11])	Plant response rating, Kochia (kochia (Bassia scoparia) [5]; 125 g ai/ha, 0 to 100 scale)	Plant response rating, Oat, Wild [6, 11]	Plant response rating, Oat, Wild ([6]; 125 g ai/ha, 0 to 100 scale)	Plant response rating, Ragweed [7, 11]	Plant response rating, Ragweed ([7]; 125 g ai/ha, 0 to 100 scale)	Plant response rating, Soybean (soybean (Glycine max); [11])	Plant response rating, Soybean (soybean (Glycine max); 125 g ai/ha, 0 to 100 scale)	Plant response rating, Barnyardgrass (0 to 100 scale, 0 is no effect, 100 is complete control) [8]
Cc1c(C(=O)N2C[C@@H](C)O[C@@H](C)C2)cc(N(COC(=O)C(C)(C)C)S(=O)(=O)C(F)(F)F)c(C)c1C [Compound 331]	0	0	0	70	0	20	0	0	0	90	0	10	0	20	70	80	60	70	98
CCCCOC1CC(c2cc(NS(=O)(=O)C(F)(F)F)c(C)cc2C)=NO1 (stereo not drawn) [Compound 323]	0	10	50	90	20	90	20	30	0	30	50	60	0	0	0	50	0	30	0
COc1cc(C)c(NS(=O)(=O)C(F)(F)F)cc1C1=NOC2CCCC12 (stereo not drawn) [Compound 312]	0	10	20	30	0	0	0	0	0	30	0	0	0	20	0	40	20	20	0
Cc1cc(C)c(N(COC(=O)C(C)(C)C)S(=O)(=O)C(F)(F)F)cc1C1=NOC2OCCC12 (stereo not drawn) [Compound 352]	10	50	30	100	30	100	0	20	60	90	50	70	0	20	70	90	20	60	90
Cc1cc(Br)c(C2=NOC3CCCC23)cc1NS(=O)(=O)C(F)(F)F (stereo not drawn) [Compound 302]	0	0	20	80	30	80	0	20	0	30	10	50	0	0	30	70	20	40	0
C#CCN(C)C(=O)c1cc(NS(=O)(=O)C(F)(F)F)c(Cl)c(F)c1C [Compound 337]	0	70	20	100	20	50	0	20	70	90	40	70	0	20	50	90	50	70	0
